Test results taken from PMC5063900, “A phase 1 study of the safety, tolerability, pharmacokinetics, and pharmacodynamics of TAK-063, a selective PDE10A inhibitor” (Psychopharmacology, 2016).

Assay: CNS Vital Signs (CNSVS) computerized cognition battery
Type: in vivo, human
Details: for Cognitive flexibility domain score, Difference (TAK-063 LS mean - placebo LS mean, change from baseline) / Composite memory domain score, Difference (TAK-063 LS mean - placebo LS mean, change from baseline) / Executive functioning domain score, Difference (TAK-063 LS mean - placebo LS mean, change from baseline) / Processing speed domain score, Difference (TAK-063 LS mean - placebo LS mean, change from baseline) / Psychomotor speed domain score, Difference (TAK-063 LS mean - placebo LS mean, change from baseline) / Reaction time domain score, Difference (TAK-063 LS mean - placebo LS mean, change from baseline) / Reasoning domain score, Difference (TAK-063 LS mean - placebo LS mean, change from baseline) / Sustained attention domain score, Difference (TAK-063 LS mean - placebo LS mean, change from baseline) / Verbal memory domain score, Difference (TAK-063 LS mean - placebo LS mean, change from baseline) / Visual memory domain score, Difference (TAK-063 LS mean - placebo LS mean, change from baseline) / Working memory domain score, Difference (TAK-063 LS mean - placebo LS mean, change from baseline): 6 h postdose, fasting
Description: Cognitive flexibility, attention, executive function, memory, reasoning, motor control, psychomotor speed, reaction time, and information processing speed were assessed predose and at 2 and 6 h following TAK-063 treatment using the CNSVS computerized cognition battery. The CNSVS cognition battery is a well-validated, sensitive measure and included the following tests: verbal and visual memory (VBM and VIM) tests, finger-tapping test, symbol digit coding test, Stroop test, shifting attention test, the nonverbal reasoning test, and the 4-part continuous performance test (Gualtieri and Johnson [2006]). Standardized domain scores for cognitive flexibility, composite memory, executive functioning, processing speed, psychomotor speed, reaction time, reasoning, sustained attention, verbal memory, visual memory, and working memory were reported. In all domains, a decrease in the standardized domain score is indicative of impairment.
All statistical analyses were generated using SAS Version 9.2 (SAS, Cary, NC, USA). The PK parameters were derived using non-compartmental methods with WinNonlin Enterprise Version 6.3 (Pharsight Corp., Mountain View, CA, USA). Frequency or descriptive statistics were used for summary of data. Where indicated, percent coefficient of variation was included in the summary of continuous data. All statistical tests were 2-tailed at α = 0.05 level for significance unless otherwise stated. A power model was used to evaluate dose proportionality by race for fasted subjects; in the event of no observed race effect, dose proportionality was assessed for all subjects. To evaluate the food effect, a paired t test was performed on T max and natural log-transformed C max, and AUCs. An ANCOVA model with baseline scores and race as covariates was used to assess the effects of TAK-063 on CNSVS domain scores.

Structure (SMILES): COc1cn(-c2ccc(-n3cccn3)cc2F)nc(-c2ccnn2-c2ccccc2)c1=O [TAK-063]
- Cognitive flexibility domain score, Difference (TAK-063 LS mean - placebo LS mean, change from baseline) (3 mg): 2.9
- Composite memory domain score, Difference (TAK-063 LS mean - placebo LS mean, change from baseline) (3 mg): -1.4
- Executive functioning domain score, Difference (TAK-063 LS mean - placebo LS mean, change from baseline) (3 mg): 2.9
- Processing speed domain score, Difference (TAK-063 LS mean - placebo LS mean, change from baseline) (3 mg): 2.5
- Psychomotor speed domain score, Difference (TAK-063 LS mean - placebo LS mean, change from baseline) (3 mg): -1.8
- Reaction time domain score, Difference (TAK-063 LS mean - placebo LS mean, change from baseline) (3 mg): 1.5
- Reasoning domain score, Difference (TAK-063 LS mean - placebo LS mean, change from baseline) (3 mg): 6.9
- Sustained attention domain score, Difference (TAK-063 LS mean - placebo LS mean, change from baseline) (3 mg): 15.0
- Verbal memory domain score, Difference (TAK-063 LS mean - placebo LS mean, change from baseline) (3 mg): -4.8
- Visual memory domain score, Difference (TAK-063 LS mean - placebo LS mean, change from baseline) (3 mg): 4.5
- Working memory domain score, Difference (TAK-063 LS mean - placebo LS mean, change from baseline) (3 mg): 9.9
- Cognitive flexibility domain score, Difference (TAK-063 LS mean - placebo LS mean, change from baseline) (10 mg): -10.0
- Composite memory domain score, Difference (TAK-063 LS mean - placebo LS mean, change from baseline) (10 mg): -1.9
- Executive functioning domain score, Difference (TAK-063 LS mean - placebo LS mean, change from baseline) (10 mg): -10.0
- Processing speed domain score, Difference (TAK-063 LS mean - placebo LS mean, change from baseline) (10 mg): 0.2
- Psychomotor speed domain score, Difference (TAK-063 LS mean - placebo LS mean, change from baseline) (10 mg): -9.6
- Reaction time domain score, Difference (TAK-063 LS mean - placebo LS mean, change from baseline) (10 mg): -5.6
- Reasoning domain score, Difference (TAK-063 LS mean - placebo LS mean, change from baseline) (10 mg): 2.2
- Sustained attention domain score, Difference (TAK-063 LS mean - placebo LS mean, change from baseline) (10 mg): 3.6
- Verbal memory domain score, Difference (TAK-063 LS mean - placebo LS mean, change from baseline) (10 mg): 2.9
- Visual memory domain score, Difference (TAK-063 LS mean - placebo LS mean, change from baseline) (10 mg): -4.4
- Working memory domain score, Difference (TAK-063 LS mean - placebo LS mean, change from baseline) (10 mg): 2.3
- Cognitive flexibility domain score, Difference (TAK-063 LS mean - placebo LS mean, change from baseline) (30 mg): -1.9
- Composite memory domain score, Difference (TAK-063 LS mean - placebo LS mean, change from baseline) (30 mg): 7.5
- Executive functioning domain score, Difference (TAK-063 LS mean - placebo LS mean, change from baseline) (30 mg): -1.2
- Processing speed domain score, Difference (TAK-063 LS mean - placebo LS mean, change from baseline) (30 mg): 2.2
- Psychomotor speed domain score, Difference (TAK-063 LS mean - placebo LS mean, change from baseline) (30 mg): -3.7
- Reaction time domain score, Difference (TAK-063 LS mean - placebo LS mean, change from baseline) (30 mg): -2.8
- Reasoning domain score, Difference (TAK-063 LS mean - placebo LS mean, change from baseline) (30 mg): -0.6
- Sustained attention domain score, Difference (TAK-063 LS mean - placebo LS mean, change from baseline) (30 mg): 2.5
- Verbal memory domain score, Difference (TAK-063 LS mean - placebo LS mean, change from baseline) (30 mg): 3.8
- Visual memory domain score, Difference (TAK-063 LS mean - placebo LS mean, change from baseline) (30 mg): 8.3
- Working memory domain score, Difference (TAK-063 LS mean - placebo LS mean, change from baseline) (30 mg): -2.2
- Cognitive flexibility domain score, Difference (TAK-063 LS mean - placebo LS mean, change from baseline) (100 mg): -5.6
- Composite memory domain score, Difference (TAK-063 LS mean - placebo LS mean, change from baseline) (100 mg): -13.5
- Executive functioning domain score, Difference (TAK-063 LS mean - placebo LS mean, change from baseline) (100 mg): -2.2
- Processing speed domain score, Difference (TAK-063 LS mean - placebo LS mean, change from baseline) (100 mg): -4.7
- Psychomotor speed domain score, Difference (TAK-063 LS mean - placebo LS mean, change from baseline) (100 mg): -11.4
- Reaction time domain score, Difference (TAK-063 LS mean - placebo LS mean, change from baseline) (100 mg): -3.4
- Reasoning domain score, Difference (TAK-063 LS mean - placebo LS mean, change from baseline) (100 mg): 2.0
- Sustained attention domain score, Difference (TAK-063 LS mean - placebo LS mean, change from baseline) (100 mg): -0.1
- Verbal memory domain score, Difference (TAK-063 LS mean - placebo LS mean, change from baseline) (100 mg): -12.0
- Visual memory domain score, Difference (TAK-063 LS mean - placebo LS mean, change from baseline) (100 mg): -8.3
- Working memory domain score, Difference (TAK-063 LS mean - placebo LS mean, change from baseline) (100 mg): -6.2
- Cognitive flexibility domain score, Difference (TAK-063 LS mean - placebo LS mean, change from baseline) (300 mg): -28.4
- Composite memory domain score, Difference (TAK-063 LS mean - placebo LS mean, change from baseline) (300 mg): -19.6
- Executive functioning domain score, Difference (TAK-063 LS mean - placebo LS mean, change from baseline) (300 mg): -26.4
- Processing speed domain score, Difference (TAK-063 LS mean - placebo LS mean, change from baseline) (300 mg): -1.5
- Psychomotor speed domain score, Difference (TAK-063 LS mean - placebo LS mean, change from baseline) (300 mg): -11.1
- Reaction time domain score, Difference (TAK-063 LS mean - placebo LS mean, change from baseline) (300 mg): -4.1
- Reasoning domain score, Difference (TAK-063 LS mean - placebo LS mean, change from baseline) (300 mg): -2.0
- Sustained attention domain score, Difference (TAK-063 LS mean - placebo LS mean, change from baseline) (300 mg): -8.1
- Verbal memory domain score, Difference (TAK-063 LS mean - placebo LS mean, change from baseline) (300 mg): -17.3
- Visual memory domain score, Difference (TAK-063 LS mean - placebo LS mean, change from baseline) (300 mg): -14.0
- Working memory domain score, Difference (TAK-063 LS mean - placebo LS mean, change from baseline) (300 mg): -1.4
- Cognitive flexibility domain score, Difference (TAK-063 LS mean - placebo LS mean, change from baseline) (1000 mg): -15.6
- Composite memory domain score, Difference (TAK-063 LS mean - placebo LS mean, change from baseline) (1000 mg): -8.6
- Executive functioning domain score, Difference (TAK-063 LS mean - placebo LS mean, change from baseline) (1000 mg): -14.1
- Processing speed domain score, Difference (TAK-063 LS mean - placebo LS mean, change from baseline) (1000 mg): -19.7
- Psychomotor speed domain score, Difference (TAK-063 LS mean - placebo LS mean, change from baseline) (1000 mg): -22.7
- Reaction time domain score, Difference (TAK-063 LS mean - placebo LS mean, change from baseline) (1000 mg): -16.5
- Reasoning domain score, Difference (TAK-063 LS mean - placebo LS mean, change from baseline) (1000 mg): -0.1
- Sustained attention domain score, Difference (TAK-063 LS mean - placebo LS mean, change from baseline) (1000 mg): 0.7
- Verbal memory domain score, Difference (TAK-063 LS mean - placebo LS mean, change from baseline) (1000 mg): -5.8
- Visual memory domain score, Difference (TAK-063 LS mean - placebo LS mean, change from baseline) (1000 mg): -6.0
- Working memory domain score, Difference (TAK-063 LS mean - placebo LS mean, change from baseline) (1000 mg): -2.7
- Single dose causing impairments in cognitive flexibility, executive functioning, processing and psychomotor speed, and visual memory (single dose, CNSVS): ≥ 100 mg
